{"source": "patent US20230014352A1", "about": "“INHALED STATINS AS BRONCHODILATORS TO IMPROVE LUNG FUNCTION IN RESPIRATORY DISEASES” (priority 2019, published 2023)", "key": {"[1]": {"test_system": "myosin light chain-2 (MLC-2) phosphorylation", "experiment": "Thrombin-induced MLC-2 phosphorylation, western blot", "format": "cell-based, human", "settings": "1 or 10 μM, 24 hrs; thrombin 2 U, 30 min; FIG. 5B", "experimental": "(§1) Antibodies for western blot analysis against total and phospho-MLC2 were obtained from Santa Cruz Biotechnology and Cell Signaling Technology, respectively. Antibodies for pROCK1, total ROCK1, and GAPDH were obtained from Abcam. Pitavastatin was obtained from Santa Cruz Biotechnology.\nHuman ASM cells were treated with pitavastatin (1 or 10 μM) for 24 hours, then treated with thrombin (2 U, 30 min). As depicted in FIG. 5B, pitavastatin (1 or 10 μM) inhibited thrombin-induced MLC2 phosphorylation."}, "eotaxin-3": {"test_system": "eotaxin-3", "experiment": "Cytokine mixture (CM)-induced eotaxin-3 expression in ASM cells, dexamethasone with or without pitavastatin", "format": "cell-based, human", "settings": "pitavastatin 0.1, 0.5 or 1 μM added to dexamethasone 0.1, 1 or 5 μM, 60 hrs; CM 15 hrs; FIG. 18", "experimental": "Primary human airway smooth muscle cells were cultured to confluence in serum-containing media (10% FBS), then pre-treated with dexamethasone (“Dex”) at 0.1, 1, or 5 μM, with or without pitavastatin (“Pit”) at 0.1, 0.5, or 1 μM concentrations for 60 hrs. The ASM cells were then exposed to a mixture of cytokines ([…] IL-13, IL-17, and TNFα, “CM”) for 15 hrs, and the expression of eotaxin-3 was measured. “NT” means no treatment."}, "[2]": {"test_system": "precision-cut human lung slices", "experiment": "Histamine-induced bronchoconstriction in precision-cut human lung slices, pitavastatin and isoproterenol", "settings": "5 μM, 24 hours", "experimental": "The experiment was performed under serum-deprived media conditions, n=3-7 airways per group. Changes in lumen narrowing were reported as percentage changes (±SEM) of the pre-treatment state (see FIG. 13). The absolute value of lumen airway area was not statistically different between the pitavastatin and control groups at the pre-treatment state."}, "[3]": {"test_system": "Rho kinase (ROCK-1) phosphorylation", "experiment": "Histamine-induced ROCK-1 phosphorylation, western blot", "format": "cell-based, human", "settings": "24 hrs; for inhibitory effect on ROCK-1 phosphorylation with mevalonate co-treatment: 1 μM with MA 200 μM", "experimental": "as §1\nHuman ASM cells were treated with pitavastatin (1 μM) with or without mevalonate (MA, 200 μM) for 24 hours, then treated with histamine (10 μM) for 5 minutes."}, "primary ASM cells": {"test_system": "primary ASM cells", "experiment": "Potentiation of isoproterenol relaxation of histamine-induced ASM contraction", "format": "cell-based, human", "settings": "FIG. 17A", "experimental": "Primary ASM cells from a non-asthmatic donor were serum-deprived for 2 days in a tissue culture flask, and then cultured to confluence for an additional 24 hrs in serum-free medium in 96-well traction force measurement plates (3 kPa stiffness). The pre-treatment contractile force was measured as described above. Cells were then treated with either vehicle (PEG400), control (serum-free medium) or Pitavastatin at concentrations of 10^−5 M, 10^−6 M, 10^−7 M, and 10^−8 M, for 24 hrs, and the baseline contractile force measured. ASM cells were then acutely treated with histamine (10 μM) for 30 minutes, and the histamine-induced contractile force was measured. The cells were then treated with isoproterenol (10^−6, 10^−7, 10^−8, 10^−9, and 10^−11 M) for 30 minutes, and the isoproterenol-relaxed ASM contractile force was measured. The percent “histamine contraction” was calculated as the ratio of isoproterenol-relaxed ASM contractile force to histamine-induced contractile force. […] FIG. 17B details the data boxed in FIG. 17A."}, "ROCK-1": {"test_system": "ROCK-1", "experiment": "Total ROCK-1 expression, western blot", "format": "cell-based, human", "settings": "1 μM, 24 hrs, FIG. 15C", "experimental": "as §1\nNon-asthmatic primary human ASM cells were treated with either vehicle or pitavastatin (1 μM) for 24 hours. Cells were then immuno-stained for F-actin expression. […] Cell lysates were analyzed by western blot for total ROCK-1, total ROCK-2, total MLC-2, and phosphorylated MLC-2. As shown in FIGS. 15C and 15D, pitavastatin reduced the total expression of ROCK-1, ROCK-2, and MLC-2 (total and phosphorylated)."}, "[4]": {"test_system": "human ASM cells, histamine-induced contraction", "experiment": "Contractile force screening, histamine-induced ASM contraction", "format": "cell-based", "experimental": "Contractile Force Screening: Human ASM cells were grown to confluence in 96-well plates on custom NuSil™ 8100 elastic substrates (Avantor, Inc., Radnor, Pa.) (R. Rokhzan et al., Lab Invest (2019) 99(1):138-45). Fluorescent beads (diameter ˜400 nm) were embedded in the substrate surface to enable traction force calculations based on their displacements. To measure fractions, an inverted epi-fluorescence microscope (DMI 6000B, Leica Inc., Germany) equipped with a heated chamber (37° C.), a monochrome camera (Leica DFC365 FX), and a motorized stage was used. Spatial images were recorded of substrate-embedded fluorescent beads at 10× magnification. Based on the bead displacements (resolution ˜15 μm) relative to a cell-free model, together with knowledge of substrate stiffness and thickness, fractions were computed using the approach of Fourier Transform Traction Cytometry (B. Yeganeh et al., Pharmacol Ther (2014) 143(1):87-110), modified to the case of cell monolayers (E. J. Whalen et al., Cell (2007) 129(3):511-22). From each fraction map, the root-mean-squared traction (RMST) value and strain energy were calculated and reported as a measure of normal contraction in the monolayer. On a well-by-well basis, the ratio of the strain energy after vs. before treatment was computed, and all values of a given treatment group were normalized to the mean of each treatment group.\nIn complete media, 0.08 μM pitavastatin is sufficient to inhibit histamine-mediated ASM contraction (FIG. 4A)."}, "IL6": {"test_system": "IL6", "experiment": "IL17/TNFα-induced IL6 peptide secretion by ASM cells", "format": "cell-based, human", "settings": "2 mM pitavastatin, 72 hrs; cytokines 18 hrs at 10 ng/mL; 10% FBS; FIG. 14B", "experimental": "Non-asthmatic primary human ASM cells were grown to confluence and were either untreated or pre-treated with 2 mM pitavastatin and GGPP (10 mM) for a total of 72 hours. Total cytokine stimulation was for 18 hours at 10 ng/mL. […] All experiments were conducted under serum-containing media conditions (10% FBS)."}}, "note": "Entries after “also recorded” stand apart in the source; their conditions may differ.", "data": [{"smiles": "O=C(O)C[C@H](O)C[C@H](O)/C=C/c1c(C2CC2)nc2ccccc2c1-c1ccc(F)cc1", "note": "[pitavastatin]", "values": [{"measurement": "thrombin-induced MLC2 phosphorylation", "setting": "[1]", "value": "inhibits; also recorded: reduced MLC-2 phosphorylation"}, {"measurement": "eotaxin-3 expression", "setting": "eotaxin-3", "value": "Significant reductions in eotaxin-3 expression"}, {"measurement": "interference with the β2-agonist effect of isoproterenol", "setting": "[2]", "value": "did not interfere; also recorded: does not interfere"}, {"measurement": "histamine (Hist)-induced bronchoconstriction", "setting": "[2]; histamine 10 μM 15 min, serum-deprived, FIG. 13", "value": "reduced"}, {"measurement": "inhibitory effect on ROCK-1 phosphorylation with mevalonate co-treatment", "setting": "[3]", "value": "abrogated"}, {"measurement": "inhibitory effect on ROCK-1 phosphorylation with mevalonate co-treatment", "setting": "[3]; listed as Pit", "value": "abrogates"}, {"measurement": "histamine-induced ROCK1 phosphorylation", "setting": "[3]; 1 μM, histamine 10 μM, 5 min, FIG. 5A", "value": "significantly reduced; also recorded: inhibits"}, {"measurement": "effect of isoproterenol on histamine contraction compared to vehicle", "setting": "primary ASM cells; 10^−7 M, 10^−6 M and 10^−5 M pitavastatin 24 hrs, 10^−9 M and 10^−8 M isoproterenol", "value": "potentiated"}, {"measurement": "degree of relaxation compared to vehicle", "setting": "primary ASM cells; all concentrations of statin, 10^−11 M isoproterenol", "value": "not substantially different from vehicle"}, {"measurement": "total (basal) expression of ROCK-1", "setting": "ROCK-1", "value": "reduced"}, {"measurement": "potency relative to SA in prevention of histamine-induced ASM contraction", "setting": "[4]", "value": "at least 5 times"}, {"measurement": "histamine-induced ASM contraction", "setting": "[4]; 0.4 μM statin, 24 hrs", "value": "renders histamine ineffective at inducing ASM contraction"}, {"measurement": "histamine-induced ASM contraction", "setting": "[4]; 0.4 μM statin, 24 hrs, listed as Pit", "value": "inhibits histamine-induced ASM contraction"}, {"measurement": "concentration sufficient to inhibit histamine-mediated ASM contraction", "setting": "[4]; complete media, FIG. 4A", "value": 0.08, "unit": "µM"}, {"measurement": "potency ranking on histamine-induced ASM contraction", "setting": "[4]; pitavastatin, simvastatin, atorvastatin", "value": "most potent of the three drugs"}, {"measurement": "histamine-induced ASM contraction", "setting": "[4]; pre-treatment 24 hrs, histamine 10 μM, FIG. 4A/4B", "value": "significantly reduced histamine-induced ASM contraction; also recorded: potently and significantly inhibited"}, {"measurement": "concentration providing a similar extent of protection from histamine-induced contraction", "setting": "[4]; serum starved media", "value": 0.4, "unit": "µM"}, {"measurement": "IL17/TNFα-induced IL6 peptide secretion", "setting": "IL6", "value": "inhibited"}]}]}
